What was measured:
[1] = target: T1, human recombinant 5-HT2A receptor (Homo sapiens, UniProt P28223); assay: Test Example 1: 5-HT2A receptor binding inhibition test ([3H]-Ketanserin; non-specific ligand Serotonin HCl)
T1 construct: expressed in transfected cells; host or cells: Jump-In HEK cells (membrane preparation)
Procedure: The Kd value is calculated when the lot of the cell membrane is changed. 1 mmol/L non-specific binding calculating compound dissolved in DMSO or DMSO is previously dispensed to the microplate by 0.5 µL, and the cell membrane is diluted with an Assay buffer. The radioactive ligand solution is diluted step by step, and counts are checked with a liquid scintillator. The Assay buffer containing diluted cell membranes is dispensed by 50 µL/well into the microplate. The radioactive ligand solution is then dispensed by 50 µL/well into the microplate and the plate is sealed. The microplate is allowed to stand for 1.5 hours at room temperature (25°C). During this time, 50 mmol/L Tris-HCl (pH 7.4) is dispensed by 50 µL/well on the GF/B UniFilter plate and allowed to stand at 4°C for 1 hour or longer. Thereafter, filtration is performed with a Cell Harvester (PerkinElmer). The radioactive ligand solution is dispensed by 10 µL/well into empty wells of the GF/B UniFilter plate. After drying the GF/B UniFilter plate at room temperature, MicroScinti20 is dispensed by 50 µL/well into the GF/B UniFilter plate, and the plate is sealed. GF/B UniFilter plate is allowed to stand at room temperature overnight. The radioactivity of [^3H]-Ketanserin bound to the 5-HT2A receptor is measured using Microbeta2 (PerkinElmer) at a measurement time of 1 min/well. The Saturation curve is drawn from the measured value, and the Kd value is calculated from the slope of the Scatchard Plot.
A compound solution dissolved in DMSO is dispensed to a microplate by 0.5 µL, and a cell membrane and a hot ligand are each diluted with an Assay buffer. The Assay buffer containing diluted cell membrane is then dispensed by 50 µL/well into the microplate. The radioactive ligand solution is then dispensed by 50 µL/well into the microplate and the plate is sealed. Thereafter, the microplate is allowed to stand at room temperature (25°C) for 1.5 hours. During this time, 50 mmol/L Tris-HCl (pH 7.4) is dispensed by 50 µL/well into the GF/B UniFilter plate and allowed to stand at 4°C for 1 hour or longer. Thereafter, filtration is performed with a Cell Harvester (PerkinElmer). After drying the GF/B UniFilter plate at room temperature, MicroScinti20 is dispensed by 50 µL/well into the GF/B UniFilter plate, and the plate is sealed. GF/B UniFilter plate is allowed to stand at room temperature overnight. The radioactivity of [^3H]-Ketanserin bound to the 5-HT2A receptor is measured using Microbeta2 (PerkinElmer) at a measurement time of 1 min/well. Non-specific binding is calculated from the radioactivity of [^3H]-Ketanserin in the presence of 500 µmol/L Serotonin HCl of unlabeled ligand, and total binding is calculated from the radioactivity of [^3H]-Ketanserin in the absence of the compound of the present invention (Vehicle). Finally, the Ki value is calculated from the dose-response curve.
(The binding activity of the compound according to the present invention is calculated from the following binding inhibition rate (%).) Inhibition rate (%) = [1−(c−a)/(b−a)] × 100 [formula] • a; average cpm of non-specific binding • b; average cpm of total binding • c; cpm in the presence of the test compound
The compounds of the present invention were tested essentially as described above.

[2] = target: T2, human recombinant 5-HT2C receptor (Homo sapiens, UniProt P28335); assay: Test Example 2: 5-HT2C receptor binding inhibition test ([3H]-Mesulergine; non-specific ligand Serotonin HCl)
T2 construct: expressed in transfected cells; host or cells: Jump-In HEK cells (membrane preparation)
T2 sequence (P28335 33-458): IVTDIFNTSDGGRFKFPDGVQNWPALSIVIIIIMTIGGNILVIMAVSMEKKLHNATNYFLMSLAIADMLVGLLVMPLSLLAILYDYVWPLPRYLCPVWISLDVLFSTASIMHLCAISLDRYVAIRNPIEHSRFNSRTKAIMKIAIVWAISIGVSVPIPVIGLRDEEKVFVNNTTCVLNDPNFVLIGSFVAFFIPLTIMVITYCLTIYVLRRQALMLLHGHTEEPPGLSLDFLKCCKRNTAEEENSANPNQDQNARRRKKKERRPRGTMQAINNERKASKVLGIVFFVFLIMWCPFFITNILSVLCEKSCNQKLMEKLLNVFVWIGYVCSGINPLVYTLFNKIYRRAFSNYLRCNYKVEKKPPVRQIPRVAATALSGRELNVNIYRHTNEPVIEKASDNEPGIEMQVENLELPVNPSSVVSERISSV
Method in brief: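 Ki values come from dose-response curves of [3H]-mesulergine displacement from human 5-HT2C membranes after 2 h at 37°C, scored by scintillation counting of filter-bound radioactivity. Serotonin HCl (500 µmol/L) set non-specific binding; Kd per membrane lot was taken from Scatchard plots.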

[3] = target: T1, human recombinant 5-HT2A receptor; assay: Test Example 1-2: 5-HT2A receptor binding inhibition test ([3H]-Ketanserin; non-specific ligand Ketanserin)
Method in brief: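 Ki values were derived from dose-response inhibition of [3H]-ketanserin binding; nonspecific binding was set with 500 µmol/L ketanserin, and Kd was set for each membrane lot from Scatchard saturation plots. Incubation lasted 1.5 h at room temperature (25 °C). Bound radioligand was harvested on Tris-HCl (pH 7.4)-presoaked filters and counted.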

[4] = target: T3, human ether-a-go-go related gene (hERG) channel (Homo sapiens, UniProt Q12809); assay: Test Example 3-2: hERG test (FluxORII thallium flux, FLIPR, 4000 cells/well); type: cell-based; settings: CHO cells expressing hERG channel, compound reacted for 10 minutes, 100% inhibition = E-4031 10.3 µmol/L
T3 construct: expressed in transfected cells; host or cells: CHO cells
T3 sequence (Q12809 whole entry): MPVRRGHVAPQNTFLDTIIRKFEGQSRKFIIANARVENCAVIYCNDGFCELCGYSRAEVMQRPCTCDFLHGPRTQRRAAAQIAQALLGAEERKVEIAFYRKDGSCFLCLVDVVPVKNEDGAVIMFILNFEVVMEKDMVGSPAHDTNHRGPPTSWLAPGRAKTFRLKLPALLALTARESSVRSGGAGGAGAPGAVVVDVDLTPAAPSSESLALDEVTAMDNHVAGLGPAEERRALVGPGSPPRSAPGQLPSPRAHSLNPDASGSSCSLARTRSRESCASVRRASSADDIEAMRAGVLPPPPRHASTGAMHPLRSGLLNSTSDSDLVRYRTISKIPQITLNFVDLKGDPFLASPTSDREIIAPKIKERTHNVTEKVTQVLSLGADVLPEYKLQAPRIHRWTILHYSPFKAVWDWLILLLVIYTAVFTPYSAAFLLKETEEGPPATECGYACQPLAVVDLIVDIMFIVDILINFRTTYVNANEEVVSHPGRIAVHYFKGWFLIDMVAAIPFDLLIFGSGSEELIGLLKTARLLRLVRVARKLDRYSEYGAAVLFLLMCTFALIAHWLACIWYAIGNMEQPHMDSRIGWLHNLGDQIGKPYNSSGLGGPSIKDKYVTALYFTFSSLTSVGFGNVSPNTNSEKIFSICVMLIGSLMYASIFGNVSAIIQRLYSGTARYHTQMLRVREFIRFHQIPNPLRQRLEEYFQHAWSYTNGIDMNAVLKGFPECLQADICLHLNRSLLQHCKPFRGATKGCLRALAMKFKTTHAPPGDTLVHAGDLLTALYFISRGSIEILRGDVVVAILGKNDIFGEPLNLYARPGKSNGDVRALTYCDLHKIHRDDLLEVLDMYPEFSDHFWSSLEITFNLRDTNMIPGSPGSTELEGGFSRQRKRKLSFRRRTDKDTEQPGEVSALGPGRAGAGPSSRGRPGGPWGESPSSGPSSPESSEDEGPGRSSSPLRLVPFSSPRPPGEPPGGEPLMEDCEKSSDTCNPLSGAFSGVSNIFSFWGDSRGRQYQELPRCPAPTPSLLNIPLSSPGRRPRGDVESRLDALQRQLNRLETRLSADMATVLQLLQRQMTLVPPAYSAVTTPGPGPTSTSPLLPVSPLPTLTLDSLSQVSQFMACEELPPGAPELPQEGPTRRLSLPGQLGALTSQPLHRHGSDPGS
Procedure: For the purpose of evaluating risk of an electrocardiogram QT interval prolongation of the compound of the present invention, effects of the compound are studied by evaluating the activity of potassium channel using CHO cells expressing human ether-a-go-go related gene (hERG) channel.
Evaluation is performed using a FluxORII Green Potassium Ion Channel Assay kit (Invitrogen: Molecular Probes).
Cells (4000 cells/well/40 µL) are seeded in a 384 assay plate, and are incubated overnight (37°C, 5% CO2). After replacing the medium with a Wash buffer (lxHBSS, 20 mM HEPES) with a microplate washer, a fluorescent indicator is added to the medium and allowed to incubate (37°C, 5% CO2) for 1 hour for incorporation of the fluorescent indicator into cells.
A cell plate is placed on a cell-based kinetic assay system FLIPR (Molecular Devices, LLC.), and the compound is added to the cells so as to have a desired concentration and reacted for 10 minutes. When a mixed solution of potassium and thallium as a stimulator is added thereto, the potassium channel is opened, and thallium that flowed into the cells binds to the fluorescent indicator, so that the intracellular fluorescence signal increases, and the potassium channel current is detected as a fluorescence signal. […] Then, the inhibition rate is calculated from the signal intensity at each concentration. IC50 is calculated from the inhibition rate at each concentration.

[5] = target: T2, human recombinant 5-HT2C receptor; assay: Test Example 2-2: 5-HT2C receptor binding inhibition test ([3H]-Mesulergine; non-specific ligand Ketanserin); settings: non-specific binding with 500 µmol/L Ketanserin, 37°C, 2 hours
Method in brief: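 Membranes expressing the receptor were incubated with compound and [3H]-Mesulergine for 2 h at 37 °C, then filtered and counted by scintillation. Non-specific binding was defined with 500 µmol/L Ketanserin. Percent inhibition versus vehicle gave dose-response curves, from which Ki was derived using a Kd from Scatchard saturation analysis.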

[6] = [3H]-Ketanserin, non-specific binding with 500 µmol/L Serotonin HCl, room temperature (25°C), 1.5 hours, read-out: h 5-HT2A Ki
[7] = [3H]-Mesulergine, non-specific binding with 500 µmol/L Serotonin HCl, 37°C, 2 hours
[8] = [3H]-Ketanserin, non-specific binding with 500 µmol/L Ketanserin, room temperature (25°C), 1.5 hours, read-out: h 5-HT2A Ki
[9] = human serotonin 5-HT2C receptor binding activity

T1 sequence (P28223 whole entry): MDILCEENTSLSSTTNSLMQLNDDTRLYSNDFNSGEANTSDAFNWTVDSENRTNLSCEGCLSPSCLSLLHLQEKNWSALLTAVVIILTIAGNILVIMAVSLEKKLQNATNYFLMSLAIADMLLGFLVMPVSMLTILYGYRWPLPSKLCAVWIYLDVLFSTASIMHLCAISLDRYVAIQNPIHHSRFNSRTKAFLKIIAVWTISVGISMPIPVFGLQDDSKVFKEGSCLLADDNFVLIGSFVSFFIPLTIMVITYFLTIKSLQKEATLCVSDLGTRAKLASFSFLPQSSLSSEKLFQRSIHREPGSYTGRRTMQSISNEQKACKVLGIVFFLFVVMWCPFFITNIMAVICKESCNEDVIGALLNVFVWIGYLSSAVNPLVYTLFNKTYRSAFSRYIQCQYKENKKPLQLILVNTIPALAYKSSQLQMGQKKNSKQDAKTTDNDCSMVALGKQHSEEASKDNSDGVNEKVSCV

| Compound | Ki [3, 8] [nM] | Ki [5] [nM] | further results |
| --- | --- | --- | --- |
| Cn1ncc(Br)c1-c1cc(Nc2ccc(C(F)(F)F)nn2)ccc1OCCO [Compound I-007] |  |  | Ki [1, 6]: 0.548 nM; Ki [2, 7]: 14.9 nM |
| Cn1ncc(Br)c1-c1cc(Nc2ncc(C(F)(F)F)s2)ccc1OCCO [Compound I-005] |  |  | Ki [1, 6]: 0.301 nM; Ki [2, 7]: 1.08 nM |
| Cc1nc(C)c(-c2nc(Nc3ccc(C(F)(F)F)cc3)c(F)cc2OCCO)c(C)n1 [Compound I-267] | 0.465 |  | Ki [2, 9]: 0.786 nM; IC50 [4]: > 52000 nM |
| Cn1nccc1-c1cc(Nc2ncc(C(F)(F)F)cc2F)ccc1OCCO [Compound I-009] |  |  | Ki [1, 6]: 0.337 nM; Ki [2, 7]: 8.7 nM |
| CNC(=O)c1ccc(F)c(-c2cc(Nc3ncc(C(F)(F)F)cc3F)ncc2OCCO)c1F [Compound I-359] | 0.952 |  | Ki [2, 9]: 4.57 nM; IC50 [4]: > 52000 nM |
| Cn1ncc(Br)c1-c1cc(Nc2ccc(F)cc2)ccc1OCCO [Compound I-003] |  |  | Ki [1, 6]: 0.597 nM; Ki [2, 7]: 11.4 nM |
| Cn1ncc(Br)c1-c1cc(Nc2ccc(C(F)(F)F)nc2)ccc1OCCO [I-002] |  |  | Ki [1]: 0.375 nM; Ki [2, 7]: 19.2 nM |
| Cn1ncc(Br)c1-c1cc(Nc2ccc(C(F)(F)F)cc2)ccc1OCCO [Compound I-001] |  |  | Ki [1, 6]: 0.447 nM; Ki [2, 7]: 1.44 nM |
| Cn1ncc(Br)c1-c1cc(Nc2ccc(C(F)(F)F)cn2)ccc1OCCO [Compound I-004] |  |  | Ki [1, 6]: 0.42 nM; Ki [2, 7]: 0.387 nM |
| Cn1cnc(F)c1-c1cc(Nc2ncc(C(F)(F)F)cc2F)ccc1OCCO [Compound I-106] | 0.409 | 7.28 |  |
| Cn1ncc(Br)c1-c1cc(Nc2nccn3c(Br)cnc23)ccc1OCCO [Compound I-114] | 1.56 | 4.68 |  |
| Cn1ncc(C#N)c1-c1cc(Nc2ncc(C(F)(F)F)cc2F)ncc1OCCO [Compound I-072] | 0.412 | 4.64 |  |
| Cn1ncc(Br)c1-c1cc(Nc2nc3ccc(Cl)cc3s2)ccc1OCCO [I-064] |  | 0.18 | Ki [3]: 0.327 nM |
| Cn1ncc(Br)c1-c1cc(Nc2nccc3cccnc23)ccc1OCCO [Compound I-111] | 2.98 | 24.2 |  |
| C#Cc1cnn(C)c1-c1cc(Nc2ncc(C(F)(F)F)cc2F)ccc1OCCO [I-058] |  | 0.456 | Ki [3]: 0.418 nM |
| Cc1nc(C)c(-c2cc(Nc3ccc(C(F)(F)F)cn3)ccc2OCCO)c(C)n1 [Compound I-122] | 0.485 | 1.38 |  |
| Cn1ncc(Br)c1-c1cc(Nc2ccc(C(C)(F)F)cn2)ccc1OCCO [Compound I-080] | 0.445 | 2.74 |  |
| Cn1ncc(Br)c1-c1cc(Nc2ncc(C(F)(F)F)cn2)c(F)cc1OCCO [Compound I-148] | 0.506 | 0.906 |  |

More lines, main results first:

| Ki [3, 8] [nM] | Ki [5] [nM] | Compound | further results |
| --- | --- | --- | --- |
| 0.292 | 0.266 | Cn1cnc(Br)c1-c1cc(Nc2ncc(C(F)(F)F)cc2F)ccc1OCCO [Compound I-027] |  |
| 0.168 | 0.641 | Cc1cnc(Nc2ccc(OCCO)c(-c3c(Br)cnn3C)c2)c(F)c1 [Compound I-049] |  |
| 0.258 | 0.202 | Cn1ncc(Br)c1-c1cc(Nc2ccc(CC(F)(F)F)cn2)ccc1OCCO [Compound I-094] |  |
| 0.279 | 0.239 | Cn1ncc(Br)c1-c1cc(Nc2ncc(C(F)(F)F)cc2F)c(F)cc1OCCO [Compound I-150] |  |
| 0.325 | 0.745 | Cn1ncc(Br)c1-c1cc(Nc2ccc(Cl)cn2)cnc1OCCO [Compound I-116] |  |
| 0.316 |  | Cn1ncc(Br)c1-c1cc(Nc2ncc(C(F)(F)F)cc2F)ncc1OC(F)(F)CO [Compound I-228] | Ki [2, 9]: 0.748 nM; IC50 [4]: 50600 nM |
| 0.4 |  | Cc1nc(C)c(-c2cc(Nc3ccc(-c4ccc(F)cc4)cn3)cnc2O[C@H](C)CO)c(C)n1 [Compound I-271] | Ki [2, 9]: 3.92 nM; IC50 [4]: > 52000 nM |
| 0.276 | 25.5 | Cn1ncc(Br)c1-c1cc(Nc2nccc3ccccc23)ccc1OCCO [Compound I-112] |  |
| 0.188 | 0.165 | Cn1ncc(Br)c1-c1cc(Nc2ncc(Br)cc2F)ccc1OCCO [Compound I-043] |  |
| 0.341 | 2.49 | Cc1cnn(C)c1-c1cc(Nc2ncc(C(F)(F)F)cc2F)c(F)cc1OCCO [Compound I-144] |  |
| 0.235 | 1.89 | Cn1ncc(F)c1-c1cc(Nc2ncc(C(F)(F)F)cc2F)ccc1OCCO [Compound I-018] |  |
| 0.148 | 1.06 | Cc1cnn(C)c1-c1cc(Nc2ncc(Cl)cc2F)ccc1OCCO [Compound I-140] |  |
| 0.265 | 0.818 | Cn1ncc(Cl)c1-c1cc(Nc2ncc(C(F)(F)F)cc2F)ncc1OCCO [Compound I-115] |  |
| 0.222 | 0.17 | CCn1ncc(Br)c1-c1cc(Nc2ncc(C(F)(F)F)cc2F)ccc1OCCO [Compound I-066] |  |
| 0.396 | 0.745 | CCc1cnn(C)c1-c1cc(Nc2ncc(C(F)(F)F)cc2F)ccc1OCCO [Compound I-055] |  |
| 0.314 | 0.6 | Cn1ncc(Br)c1-c1cc(Nc2ncc(C(F)(F)F)cn2)ccc1OCCO [Compound I-105] |  |

Source: patent publication EP4631938A1, “NITROGEN-CONTAINING HETEROCYCLE WITH SEROTONIN RECEPTOR-BINDING ACTIVITY AND CARBOCYCLIC DERIVATIVE” (Shionogi & Co., Ltd, priority 2022, dated 2024)
